The structures appear in SMILES notation. pIC50: −log10 of the molar value.

Data on 20 compounds can be found in patent publication US10695334B2, “Heteroaromatic carboxamide derivatives as plasma kallikrein inhibitors” (Boehringer Ingelheim International GmbH, priority 2018, dated 2020).

Chain of Human PKK (P03952 391-638): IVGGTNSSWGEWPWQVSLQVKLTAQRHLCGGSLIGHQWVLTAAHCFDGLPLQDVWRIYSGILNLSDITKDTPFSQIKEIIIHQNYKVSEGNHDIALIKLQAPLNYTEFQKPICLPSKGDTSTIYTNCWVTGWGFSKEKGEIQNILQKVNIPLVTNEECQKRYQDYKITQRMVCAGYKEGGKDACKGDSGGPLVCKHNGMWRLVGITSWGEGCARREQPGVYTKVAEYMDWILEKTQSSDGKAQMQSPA
Chain of Human PKK (P03952 20-390 partner): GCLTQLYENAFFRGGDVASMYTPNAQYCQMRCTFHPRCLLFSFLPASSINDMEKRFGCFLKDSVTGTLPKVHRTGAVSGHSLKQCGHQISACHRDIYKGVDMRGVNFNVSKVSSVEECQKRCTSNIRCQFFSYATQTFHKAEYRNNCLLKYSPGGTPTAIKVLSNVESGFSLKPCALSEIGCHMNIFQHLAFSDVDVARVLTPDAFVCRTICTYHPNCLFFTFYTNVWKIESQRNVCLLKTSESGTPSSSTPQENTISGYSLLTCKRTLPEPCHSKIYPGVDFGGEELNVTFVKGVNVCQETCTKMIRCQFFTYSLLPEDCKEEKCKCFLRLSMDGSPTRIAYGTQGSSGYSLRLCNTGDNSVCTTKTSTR
Chain of human TK1 (P06870 25-262): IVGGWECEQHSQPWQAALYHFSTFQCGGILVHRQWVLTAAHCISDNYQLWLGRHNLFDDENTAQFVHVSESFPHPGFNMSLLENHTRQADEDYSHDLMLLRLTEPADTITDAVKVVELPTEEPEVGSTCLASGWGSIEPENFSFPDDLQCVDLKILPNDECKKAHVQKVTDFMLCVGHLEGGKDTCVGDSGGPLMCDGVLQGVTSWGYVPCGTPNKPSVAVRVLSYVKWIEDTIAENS

One assay addresses human TK1 (Homo sapiens (Human), UniProt P06870). The assay is described as follows: Inhibition of TK1 (Ki). The conditions noted are these: column head prints IC50, text above the table says Ki values. In kind it is biochemical. On the procedure: The ability of compounds of formula (I) to inhibit plasma kallikrein (PKK), Factor Xlla (FXIIa), Factor Xla (FXIa), Factor Xa (FXa), Factor Ila (alpha-thrombin; FIIa), plasmin, trypsin, tissue kallikrein 1 (TK1), Factor VIIa (FVIIa), or FVIIa complexed with Tissue Factor, phospholipids and CaCl2 (FVIIa/TF/PL/CaCl2) was determined using the following biochemical assays in assay buffer (100 mM Tris, 150 mM NaCL, adjusted to a pH of 7.8 with HCl, and containing 0.1% (w/v) BSA and 0.05% (v/v) Tween20) in the presence of 1% (v/v) DMSO: EVALUATION OF THE INHIBITION OF PKK USING AN ENDPOINT ASSAY Human PKK (0.01 U/mL; Enzyme Research Laboratories) or rat PKK (0.625 nM; produced in-house) was incubated for 1 h at room temperature with 0.10 μM fluorogenic substrate H-Pro-Phe-Arg-AMC (11295 from Bachem) and various concentrations of the test compound in assay buffer. Subsequently, PPACK II (Calbiochem) was added as a stop solution to achieve a final concentration of 1 μM and fluorescence was measured using an Envision Reader (PerkinElmer) with the wavelength excitation setting of 355 nm and the wavelength emission setting of 460 nm.
Prior to the assay, human TK1 (R&D Systems) was activated by incubation with human trypsin (Calbiochem) in a 1:10,000 ratio for 15 min at 37° C. For assaying TK1 inhibitory activity, activated TK1 (31.25 nM or 1 U/mL) was incubated at 24° C. with 0.1 mM fluorogenic substrate H-Pro-Phe-Arg-AMC (11295 from Bachem) and various concentrations of the test compound in assay buffer. Measurements were performed in a kinetic interval every 2nd minute for 16 min using a Spectramax M5 (Molecular Devices) with the following settings of the wavelength excitation of 350 nm and wavelength emission of 450 nm.
The average Vmax values for the time interval from 2 to 12 min after initiation of the assay (expressed as either delta OD/min for assays using a chromogenic substrate or delta RFU/min for assays using a fluorigenic substrate, respectively) were plotted versus the Log of the concentration in molar of the evaluated inhibitor compound. The pIC50 values were then fitted using a four-parametric fitting procedure using GraphPad Prism (version 6; GraphPad Software, Inc.). Respective Ki values were obtained by correction of the IC50 values for the respective KM value of the used substrate (see Table A for the obtained KM values of the used substrates) using the following formula: […]
Where the IC50 is in molar and the KM value in mM.
By pIC50 is commonly meant the IC50 on a negative log10 scale, so that one unit is a factor of ten. The low end stands for a large IC50, the high end for a small IC50. With `Cc1nc(N2CC3(CC3)C2)ncc1Cn1cnc(C(=O)N[C@@H]2CCc3c(C)n[nH]c32)c1` [Example 93, 1-[(2-{5-Azaspiro[2.3]hexan-5-yl}-4-methyl-pyrimidin-5-yl)methyl]-N-[(6R)-3-methyl-2H,4H,5H,6H-cyclopenta[c]pyrazol-6-yl]-1H-imidazole-4-carboxamide], the pIC50 is < 5.00.
On the same count and under the same terms, the figure for `Cc1nc(N2CC3CC3C2C)ccc1Cn1cc(C(=O)N[C@@H]2CCc3c2n[nH]c3C)cn1` (stereo partly drawn) [Example 82, N-[(6R)-3-Methyl-2H,4H,5H,6H-cyclopenta[c]pyrazol-6-yl]-1-[(2-methyl-6-{2-methyl-3-azabicyclo[3.1.0]hexan-3-yl}pyridin-3-yl)methyl]-1H-pyrazole-4-carboxamide] is < 5.00.

Another assay deals with Human PKK (Homo sapiens (Human), UniProt P03952). Briefly: Inhibition of PKK, endpoint assay (human PKK). In kind it is biochemical. The conditions noted are these: substrate H-Pro-Phe-Arg-AMC, 1 h room temperature. As for the experimental part:
Subsequently, PPACK II (Calbiochem) was added as a stop solution to achieve a final concentration of 1 μM and fluorescence was measured using an Envision Reader (PerkinElmer) with the wavelength excitation setting of 355 nm and the wavelength emission setting of 460 nm.
Regarding `Cc1nc(N2CC3(CC3)C2)ncc1Cn1cnc(C(=O)N[C@@H]2CCc3c(C)n[nH]c32)c1` [Example 93, 1-[(2-{5-Azaspiro[2.3]hexan-5-yl}-4-methyl-pyrimidin-5-yl)methyl]-N-[(6R)-3-methyl-2H,4H,5H,6H-cyclopenta[c]pyrazol-6-yl]-1H-imidazole-4-carboxamide], the negative logarithm of the IC50 (pIC50) was 8.40.
Still for that read-out and setting: under `Cc1nc(N2CC3CC3C2C)ccc1Cn1cc(C(=O)N[C@@H]2CCc3c2n[nH]c3C)cn1` (stereo partly drawn) [Example 82, N-[(6R)-3-Methyl-2H,4H,5H,6H-cyclopenta[c]pyrazol-6-yl]-1-[(2-methyl-6-{2-methyl-3-azabicyclo[3.1.0]hexan-3-yl}pyridin-3-yl)methyl]-1H-pyrazole-4-carboxamide] stands 8.70.
As to `Cc1nc(N2CC3CC3C2)ccc1Cn1cc(C(=O)N[C@@H]2CCc3c2n[nH]c3C)c(C(C)(C)O)n1` (stereo partly drawn) [Example 106, 1-[(6-{3-Azabicyclo[3.1.0]hexan-3-yl}-2-methylpyridin-3-yl)methyl]-3-(2-hydroxypropan-2-yl)-N-[(6R)-3-methy-2H,4H,5H,6H-cyclopenta[c]pyrazol-6-yl]-1H-pyrazole-4-carboxamide], the pIC50 was 9.05.
For the compound `Cc1nc(N2CC3(CC3)C2)ccc1Cn1cc(C(=O)N[C@@H]2CCc3c(C)n[nH]c32)c(C)n1` [Example 24, 1-[(6-{5-Azaspiro[2.3]hexan-5-yl}-2-methylpyridin-3-yl)methyl]-3-methyl-N-[(6R)-3-methyl1H,4H,5H,6H-cyclopenta[c]pyrazol-6-yl]-1H-pyrazole-4-carboxamide], the pIC50 is 8.70.
`Cc1nc(N2CC3CC3C2)ncc1Cn1cnc(C(=O)N[C@@H]2CCc3c2n[nH]c3C)c1` (stereo partly drawn) [Example 91, 1-[(2-{3-Azabicyclo[3.1.0]hexan-3-yl}-4-methyl-pyrimidin-5-yl)methyl]-N-[(6R)-3-methyl-2H,4H,5H,6H-cyclopenta[c]pyrazol-6-yl]-1H-imidazole-4-carboxamide] had a negative-log IC50 (pIC50) of 8.52.
Same read-out and setting: under `Cc1nc(N2CC3CC2C3)ccc1Cn1cc(C(=O)N[C@@H]2CCc3c2n[nH]c3C)cn1` [Example 49, 1-[(6-{2-Azabicyclo[2.1.1]hexan-2-yl}-2-methylpyridin-3-yl)methyl]-N-[(6R)-3-methyl-2H,4H,5H,6H-cyclopenta[c]pyrazol-6-yl]-1H-pyrazole-4-carboxamide] stands 7.38; under `COC1C2CC1CN(c1ccc(Cn3cc(C(=O)N[C@@H]4CCc5c4n[nH]c5C)cn3)c(C)n1)C2` (stereo partly drawn) [Example 53, 1-[(6-{6-methoxy-3-azabicyclo[3.1.1]heptan-3-yl}-2-methylpyridin-3-yl)methyI]-N-[(6R)-3-methyl-2H,4H,5H,6H-cyclopenta[c]pyrazol-6-yl]-1H-pyrazole-4-carboxamide], 8.05; under `Cc1nc(N2CC3(C2)CC3(F)F)ccc1Cn1cc(C(=O)N[C@@H]2CCc3c2n[nH]c3C)cn1` [Example 51, 1-[(6-{1,1-Difluoro-5-azaspiro[2.3]hexan-5-yl}-2-methylpyridin-3-yl)methyl]-N-[(6R)-3-methyl-2H,4H,5H,6H-cyclopenta[c]pyrazol-6-yl]-1H-pyrazole-4-carboxamide], 7.60.
Still for that read-out and setting: under `Cc1nc(N2CC3(CC3)C2)ncc1Cn1cc(C(=O)N[C@@H]2CCc3c(C)n[nH]c32)c(C)n1` [Example 29, 1-[(2-{5-Azaspiro[2.3]hexan-5-yl}-4-methyl-pyrimidin-5-yl)methyl]-3-methyl-N-[(6R)-3-methyl-1H,4H,5H,6H-cyclpenta[c]pyrazol-6-yl]-1H-pyrazole-4-carboxamide] stands 8.15; under `Cc1nc(N2CC3(CC(O)C3)C2)ccc1Cn1cc(C(=O)N[C@@H]2CCc3c2n[nH]c3C)cn1` [Example 76, 1-[(6-{6-Hydroxy-2-azaspiro[3.3]heptan-2-yl}-2-methylpyridin-3-yl)methyl]-N-[(6R)-3-methyl-2H,4H,5H,6H-cyclopenta[c]pyrazol-6-yl]-1H-pyrazole-4-carboxamide], 6.24.
For the compound `Cc1nc(N2CCC3C(CC2)C3(F)F)ccc1Cn1cc(C(=O)N[C@@H]2CCc3c2n[nH]c3C)cn1` (stereo partly drawn) [Example 66, 1-[(6-{8,8-Difluoro-4-azabicyclo[5.1.0]octan-4-yl]-2-methylpyridin-3-yl)methyl]-N-[(6R)-3-methyl-2H,4H,5H,6H-cyclopenta[c]pyrazol-6-yl]-1H-pyrazole-4-carboxamide], the pIC50 is 7.29.
`Cc1nc(N2CC(c3ccc(F)cc3)C2)ccc1Cn1cc(C(=O)N[C@@H]2CCc3c2n[nH]c3C)cn1` [Example 81, 1-({6-[3-(4-Fluorophenyl)azetidin-1-yl]-2-methylpyridin-3-yl}methyl)-N-[(6R)-3-methyl-2H,4H,5H,6H-cyclopenta[c]pyrazol-6-yl]-1H-pyrazole-4-carboxamide] gave a pIC50 of 6.79.
Still for that read-out and setting: the figure for `Cc1nc(N2CC3CC3C2)ccc1Cn1cc(C(=O)N[C@@H]2CCc3c(C)n[nH]c32)c(-c2cnn(C)c2)n1` (stereo partly drawn) [Example 32, 1-[(6-{3-Azabicyclo[3.1.0]hexan-3-yl}-2-methyl-pyridin-3-yl)methyl]-1′-methyl-N-[(6R)-3-methyl-1H,4H,5H,6H-cyclopenta[c]pyrazol-6-yl]-1H,1′H-[3,4′-bipyrazole]-4-carboxamide] is 8.70; for `Cc1nc(N2CC3CC3C2)ccc1Cn1cnc(C(=O)N[C@@H]2CCc3c2n[nH]c3C)n1` (stereo partly drawn) [Example 107, 1-[(6-{3-Azabicyclo[3.1.0]hexan-3-yl}-2-methylpyridin-3-yl)methyl]-N-[(6R)-3-methyl-2H,4H,5H,6H-cyclopenta[c]pyrazol-6-yl]-1H-1,2,4-triazole-3-carboxamide] it is 8.15; for `Cc1nc(N2CC3CC3C2)ccc1Cn1cc(C(=O)N[C@H]2CCc3c(C)n[nH]c32)cn1` (stereo partly drawn) [Example 2, 1-[(6-{3-Azabicyclo[3.1.0]hexan-3-yl}-2-methylpyridin-3-yl)methyl]-N-[(6S)-3-methyl-1H,4H,5H,6H-cyclopenta[c]pyrazol-6-yl]-1H-pyrazole-4-carboxamide] it is 7.49.
The compound `Cc1nc(N2C[C@H]3COC[C@H]3C2)ccc1Cn1cc(C(=O)N[C@@H]2CCc3c2n[nH]c3C)cn1` [Example 72, 1-({6-[(3aR,6aS)-Hexahydro-1H-furo[3,4-c]pyrrol-5-yl]-2-methylpyridin-3-yl}methyl)-N-[(6R)-3-methyl-2H,4H,5H,6H-cyclopenta[c]pyrazol-6-yl]-1H-pyrazole-4-carboxamide] showed a pIC50 of 7.44.
Same read-out and setting: under `Cc1nc(N2CC(CO)C2)ccc1Cn1cc(C(=O)N[C@@H]2CCc3c2n[nH]c3C)cn1` [Example 56, 1-({6-[3-(Hydroxymethyl)azetidin-1-yl]-2-methylpyridin-3-yl}methyl)-N-[(6R)-3-methyl-2H,4H,5H,6H-cyclopenta[c]pyrazol-6-yl]-1H-pyrazole-4-carboxamide] stands 7.25; under `CCC1(C)CN(c2ccc(Cn3cc(C(=O)N[C@@H]4CCc5c4n[nH]c5C)cn3)c(C)n2)C1` [Example 42, 1-{[6-(3-Ethyl-3-methylazetidin-1-yl)-2-methylpyridin-3-yl]methyl}-N-[(6R)-3-methyl-2H,4H,5H,6H-cyclopenta[c]pyrazol-6-yl]-1H-pyrazole-4-carboxamide], 8.22; under `Cc1nc(N2CC3C(C2)C3(F)F)ncc1Cn1cc(C(=O)N[C@@H]2CCc3c(C)n[nH]c32)c(C)n1` (stereo partly drawn) [Example 27, 1-[(2-{6,6-Difluoro-3-azabicyclo[3.1.0]hexan-3-yl}-4-methylpyrimidin-5-yl)methyl]-3-methyl-N-[(6R)-3-methyl-1H,4H,5H,6H-cyclopenta[c]pyrazol-6-yl]-1H-pyrazole-4-carboxamide], 8.52.
Same read-out and setting: the figure for `Cc1nc(N2CC3CC3C2)ccc1Cn1ncc(C(=O)N[C@@H]2CCc3c(C)n[nH]c32)n1` (stereo partly drawn) [Example 10, 2-[(6-{3-Azabicyclo[3.1.0]hexan-3-yl}-2-methylpyridin-3-yl)methyl]-N-[(6R)-3-methyl-1H,4H,5H,6H-cyclopenta[c]pyrazol-6-yl]-2H-1,2,3-triazole-4-carboxamide] is 7.59.
